Laboratory results from ChEMBL document CHEMBL3232845 (Bioorg Med Chem Lett, 2014).

Experiments:
[1] = molecular target: Serine/threonine-protein kinase B-raf (Homo sapiens) (UniProt P15056); assay: Inhibition of B-Raf (unknown origin) at 1 uM
[2] = molecular target: Aurora kinase A (Homo sapiens) (UniProt O14965); assay: Inhibition of human AURKA assessed as enzyme activity at 1 uM relative to control; set-up: scale not given: the % may be the effect or the level left
[3] = molecular target: Tyrosine-protein kinase ABL2 (Homo sapiens) (UniProt P42684); assay: Inhibition of human Abl2 assessed as enzyme activity at 1 uM relative to control; set-up: scale not given: the % may be the effect or the level left
[4] = molecular target: Serine/threonine-protein kinase BRSK1 (Homo sapiens) (UniProt Q8TDC3); assay: Inhibition of human BrSK1 assessed as enzyme activity at 1 uM relative to control; set-up: scale not given: the % may be the effect or the level left
[5] = molecular target: Calcium/calmodulin-dependent protein kinase type II subunit beta (Homo sapiens) (UniProt Q13554); assay: Inhibition of human CAMK2b assessed as enzyme activity at 1 uM relative to control; set-up: scale not given: the % may be the effect or the level left
[6] = molecular target: CDK2/Cyclin A2 (Homo sapiens) (UniProt P24941+P20248); assay: Inhibition of human CDK2/cyclinA assessed as enzyme activity at 1 uM relative to control; format: protein-complex assay; set-up: scale not given: the % may be the effect or the level left
[7] = molecular target: Casein kinase I isoform gamma-1 (Homo sapiens) (UniProt Q9HCP0); assay: Inhibition of human CK1gamma1 assessed as enzyme activity at 1 uM relative to control; set-up: scale not given: the % may be the effect or the level left
[8] = molecular target: Dual specificity protein kinase CLK3 (Homo sapiens) (UniProt P49761); assay: Inhibition of human CLK3 assessed as enzyme activity at 1 uM relative to control; set-up: scale not given: the % may be the effect or the level left
[9] = molecular target: Death-associated protein kinase 2 (Homo sapiens) (UniProt Q9UIK4); assay: Inhibition of human DAPK2 assessed as enzyme activity at 1 uM relative to control; set-up: scale not given: the % may be the effect or the level left
[10] = molecular target: Discoidin domain-containing receptor 2 (Homo sapiens) (UniProt Q16832); assay: Inhibition of human DDR2 assessed as enzyme activity at 1 uM relative to control; set-up: scale not given: the % may be the effect or the level left
[11] = molecular target: Myotonin-protein kinase (Homo sapiens) (UniProt Q09013); assay: Inhibition of human DMPK assessed as enzyme activity at 1 uM relative to control; set-up: scale not given: the % may be the effect or the level left
[12] = molecular target: Serine/threonine-protein kinase 17A (Homo sapiens) (UniProt Q9UEE5); assay: Inhibition of human DRAK1 assessed as enzyme activity at 1 uM relative to control; set-up: scale not given: the % may be the effect or the level left
[13] = molecular target: Tyrosine-protein kinase Tec (Homo sapiens) (UniProt P42680); assay: Inhibition of human activated TEC assessed as enzyme activity at 1 uM relative to control; set-up: scale not given: the % may be the effect or the level left
[14] = molecular target: Testis-specific serine/threonine-protein kinase 2 (Homo sapiens) (UniProt Q96PF2); assay: Inhibition of human TSSK2 assessed as enzyme activity at 1 uM relative to control; set-up: scale not given: the % may be the effect or the level left
[15] = molecular target: Serine/threonine-protein kinase VRK2 (Homo sapiens) (UniProt Q86Y07); assay: Inhibition of human VRK2 assessed as enzyme activity at 1 uM relative to control; set-up: scale not given: the % may be the effect or the level left
[16] = molecular target: Tyrosine-protein kinase Yes (Homo sapiens) (UniProt P07947); assay: Inhibition of human Yes assessed as enzyme activity at 1 uM relative to control; set-up: scale not given: the % may be the effect or the level left
[17] = molecular target: Mitogen-activated protein kinase kinase kinase 9 (Homo sapiens) (UniProt P80192); assay: Inhibition of human MLK1 assessed as enzyme activity at 1 uM relative to control; set-up: scale not given: the % may be the effect or the level left
[18] = molecular target: Protein kinase C iota type (Homo sapiens) (UniProt P41743); assay: Inhibition of human PKCiota assessed as enzyme activity at 1 uM relative to control; set-up: scale not given: the % may be the effect or the level left
[19] = molecular target: Serine/threonine-protein kinase D1 (Homo sapiens) (UniProt Q15139); assay: Inhibition of human PKD1 assessed as enzyme activity at 1 uM relative to control; set-up: scale not given: the % may be the effect or the level left
[20] = molecular target: cGMP-dependent protein kinase 1 (Homo sapiens) (UniProt Q13976); assay: Inhibition of human PRKG1beta assessed as enzyme activity at 1 uM relative to control; set-up: scale not given: the % may be the effect or the level left
[21] = molecular target: Tyrosine-protein kinase FRK (Homo sapiens) (UniProt P42685); assay: Inhibition of human PTK5 assessed as enzyme activity at 1 uM relative to control; set-up: scale not given: the % may be the effect or the level left
[22] = molecular target: Serine/threonine-protein kinase PLK1 (Homo sapiens) (UniProt P53350); assay: Inhibition of human Plk1 assessed as enzyme activity at 1 uM relative to control; set-up: scale not given: the % may be the effect or the level left
[23] = molecular target: Serine/threonine-protein kinase PLK3 (Homo sapiens) (UniProt Q9H4B4); assay: Inhibition of human Plk3 assessed as enzyme activity at 1 uM relative to control; set-up: scale not given: the % may be the effect or the level left
[24] = molecular target: Proto-oncogene tyrosine-protein kinase receptor Ret (Homo sapiens) (UniProt P07949); assay: Inhibition of human Ret assessed as enzyme activity at 1 uM relative to control; set-up: scale not given: the % may be the effect or the level left
[25] = molecular target: Ribosomal protein S6 kinase alpha-3 (Homo sapiens) (UniProt P51812); assay: Inhibition of human Rsk2 assessed as enzyme activity at 1 uM relative to control; set-up: scale not given: the % may be the effect or the level left
[26] = molecular target: Ribosomal protein S6 kinase alpha-2 (Homo sapiens) (UniProt Q15349); assay: Inhibition of human Rsk3 assessed as enzyme activity at 1 uM relative to control; set-up: scale not given: the % may be the effect or the level left
[27] = molecular target: Serine/threonine-protein kinase Sgk2 (Homo sapiens) (UniProt Q9HBY8); assay: Inhibition of human SGK2 assessed as enzyme activity at 1 uM relative to control; set-up: scale not given: the % may be the effect or the level left
[28] = molecular target: Ephrin type-A receptor 4 (Homo sapiens) (UniProt P54764); assay: Inhibition of human EphA4 assessed as enzyme activity at 1 uM relative to control; set-up: scale not given: the % may be the effect or the level left
[29] = molecular target: Ephrin type-A receptor 8 (Homo sapiens) (UniProt P29322); assay: Inhibition of human EphA8 assessed as enzyme activity at 1 uM relative to control; set-up: scale not given: the % may be the effect or the level left
[30] = molecular target: Tyrosine-protein kinase Fyn (Homo sapiens) (UniProt P06241); assay: Inhibition of human Fyn assessed as enzyme activity at 1 uM relative to control; set-up: scale not given: the % may be the effect or the level left
[31] = molecular target: Homeodomain-interacting protein kinase 3 (Homo sapiens) (UniProt Q9H422); assay: Inhibition of human HIPK3 assessed as enzyme activity at 1 uM relative to control; set-up: scale not given: the % may be the effect or the level left
[32] = molecular target: Inhibitor of nuclear factor kappa-B kinase subunit beta (Homo sapiens) (UniProt O14920); assay: Inhibition of human IKKbeta assessed as enzyme activity at 1 uM relative to control; set-up: scale not given: the % may be the effect or the level left
[33] = molecular target: Insulin receptor (Homo sapiens) (UniProt P06213); assay: Inhibition of human IR assessed as enzyme activity at 1 uM relative to control; set-up: scale not given: the % may be the effect or the level left
[34] = molecular target: Interleukin-1 receptor-associated kinase 4 (Homo sapiens) (UniProt Q9NWZ3); assay: Inhibition of human IRAK4 assessed as enzyme activity at 1 uM relative to control; set-up: scale not given: the % may be the effect or the level left
[35] = molecular target: Tyrosine-protein kinase JAK2 (Homo sapiens) (UniProt O60674); assay: Inhibition of human JAK2 assessed as enzyme activity at 1 uM relative to control; set-up: scale not given: the % may be the effect or the level left
[36] = molecular target: Tyrosine-protein kinase JAK3 (Homo sapiens) (UniProt P52333); assay: Inhibition of human JAK3 assessed as enzyme activity at 1 uM relative to control; set-up: scale not given: the % may be the effect or the level left
[37] = molecular target: Mitogen-activated protein kinase 10 (Homo sapiens) (UniProt P53779); assay: Inhibition of human JNK3 assessed as enzyme activity at 1 uM relative to control; set-up: scale not given: the % may be the effect or the level left
[38] = molecular target: MAP kinase-activated protein kinase 2 (Homo sapiens) (UniProt P49137); assay: Inhibition of human MAPKAP-K2 assessed as enzyme activity at 1 uM relative to control; set-up: scale not given: the % may be the effect or the level left

Sequence of Homeodomain-interacting protein kinase 3 (Homo sapiens) (Q9H422 whole entry, looked up): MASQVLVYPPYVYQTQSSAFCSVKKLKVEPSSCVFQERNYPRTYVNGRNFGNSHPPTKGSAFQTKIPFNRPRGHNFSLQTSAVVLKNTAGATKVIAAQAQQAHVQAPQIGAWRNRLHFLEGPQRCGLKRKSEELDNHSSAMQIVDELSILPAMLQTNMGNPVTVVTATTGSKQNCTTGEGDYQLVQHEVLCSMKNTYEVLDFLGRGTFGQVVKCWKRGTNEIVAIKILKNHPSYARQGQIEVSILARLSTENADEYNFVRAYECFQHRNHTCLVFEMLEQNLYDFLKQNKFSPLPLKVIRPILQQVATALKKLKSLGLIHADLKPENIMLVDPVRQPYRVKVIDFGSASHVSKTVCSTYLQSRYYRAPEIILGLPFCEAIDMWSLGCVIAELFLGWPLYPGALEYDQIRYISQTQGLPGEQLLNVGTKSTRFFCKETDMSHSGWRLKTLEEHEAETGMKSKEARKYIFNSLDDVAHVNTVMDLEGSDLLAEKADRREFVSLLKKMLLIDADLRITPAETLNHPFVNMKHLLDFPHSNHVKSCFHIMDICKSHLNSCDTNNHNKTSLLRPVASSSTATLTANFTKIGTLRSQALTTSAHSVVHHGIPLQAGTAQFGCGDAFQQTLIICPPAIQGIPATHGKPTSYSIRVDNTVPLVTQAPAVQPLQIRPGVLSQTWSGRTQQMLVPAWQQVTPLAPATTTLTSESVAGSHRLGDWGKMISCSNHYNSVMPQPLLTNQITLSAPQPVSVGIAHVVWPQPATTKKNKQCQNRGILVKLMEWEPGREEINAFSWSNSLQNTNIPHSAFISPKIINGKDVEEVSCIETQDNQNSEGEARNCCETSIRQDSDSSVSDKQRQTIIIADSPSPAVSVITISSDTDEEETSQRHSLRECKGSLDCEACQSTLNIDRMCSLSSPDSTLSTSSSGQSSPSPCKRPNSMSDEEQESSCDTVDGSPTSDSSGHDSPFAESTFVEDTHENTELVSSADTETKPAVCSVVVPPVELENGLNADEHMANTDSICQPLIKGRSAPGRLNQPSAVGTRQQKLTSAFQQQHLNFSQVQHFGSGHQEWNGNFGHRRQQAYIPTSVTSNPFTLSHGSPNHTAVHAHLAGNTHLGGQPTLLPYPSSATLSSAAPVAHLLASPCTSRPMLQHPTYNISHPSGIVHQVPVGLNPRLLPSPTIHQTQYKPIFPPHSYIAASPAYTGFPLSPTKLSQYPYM
Sequence of Mitogen-activated protein kinase 10 (Homo sapiens) (P53779 whole entry): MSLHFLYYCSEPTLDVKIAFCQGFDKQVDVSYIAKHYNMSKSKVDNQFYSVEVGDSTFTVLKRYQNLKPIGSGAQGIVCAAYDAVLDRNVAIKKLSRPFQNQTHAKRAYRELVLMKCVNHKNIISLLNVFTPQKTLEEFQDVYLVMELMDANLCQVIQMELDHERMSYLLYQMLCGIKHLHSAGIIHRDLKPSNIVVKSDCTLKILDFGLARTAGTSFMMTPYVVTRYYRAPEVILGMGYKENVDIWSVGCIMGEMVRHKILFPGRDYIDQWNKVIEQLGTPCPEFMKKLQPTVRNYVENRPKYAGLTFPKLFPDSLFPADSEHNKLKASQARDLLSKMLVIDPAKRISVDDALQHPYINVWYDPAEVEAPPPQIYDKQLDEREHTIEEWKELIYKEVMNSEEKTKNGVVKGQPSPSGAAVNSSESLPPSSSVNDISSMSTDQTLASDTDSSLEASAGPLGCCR
Sequence of Insulin receptor (Homo sapiens) (P06213 28-758 limits assumed): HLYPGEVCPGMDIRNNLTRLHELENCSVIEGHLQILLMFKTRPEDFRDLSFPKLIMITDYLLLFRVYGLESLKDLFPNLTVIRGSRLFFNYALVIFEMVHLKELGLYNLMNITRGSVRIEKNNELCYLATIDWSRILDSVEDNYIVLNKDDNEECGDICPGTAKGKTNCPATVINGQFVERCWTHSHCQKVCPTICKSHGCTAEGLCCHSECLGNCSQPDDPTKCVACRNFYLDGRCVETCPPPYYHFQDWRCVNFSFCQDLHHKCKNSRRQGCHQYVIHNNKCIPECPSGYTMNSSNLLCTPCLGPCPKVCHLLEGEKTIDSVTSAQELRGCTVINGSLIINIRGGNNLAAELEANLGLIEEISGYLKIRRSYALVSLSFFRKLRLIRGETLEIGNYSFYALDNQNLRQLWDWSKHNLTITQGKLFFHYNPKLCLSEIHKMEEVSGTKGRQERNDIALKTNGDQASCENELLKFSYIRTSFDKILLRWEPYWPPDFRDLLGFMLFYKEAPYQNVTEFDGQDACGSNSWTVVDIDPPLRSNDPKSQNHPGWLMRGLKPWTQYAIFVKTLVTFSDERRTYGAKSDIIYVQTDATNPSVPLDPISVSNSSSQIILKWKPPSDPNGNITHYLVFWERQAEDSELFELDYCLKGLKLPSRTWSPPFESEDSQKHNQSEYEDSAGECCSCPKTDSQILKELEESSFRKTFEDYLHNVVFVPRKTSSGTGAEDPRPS
Sequence of Insulin receptor (Homo sapiens) (P06213 763-1382 limits assumed): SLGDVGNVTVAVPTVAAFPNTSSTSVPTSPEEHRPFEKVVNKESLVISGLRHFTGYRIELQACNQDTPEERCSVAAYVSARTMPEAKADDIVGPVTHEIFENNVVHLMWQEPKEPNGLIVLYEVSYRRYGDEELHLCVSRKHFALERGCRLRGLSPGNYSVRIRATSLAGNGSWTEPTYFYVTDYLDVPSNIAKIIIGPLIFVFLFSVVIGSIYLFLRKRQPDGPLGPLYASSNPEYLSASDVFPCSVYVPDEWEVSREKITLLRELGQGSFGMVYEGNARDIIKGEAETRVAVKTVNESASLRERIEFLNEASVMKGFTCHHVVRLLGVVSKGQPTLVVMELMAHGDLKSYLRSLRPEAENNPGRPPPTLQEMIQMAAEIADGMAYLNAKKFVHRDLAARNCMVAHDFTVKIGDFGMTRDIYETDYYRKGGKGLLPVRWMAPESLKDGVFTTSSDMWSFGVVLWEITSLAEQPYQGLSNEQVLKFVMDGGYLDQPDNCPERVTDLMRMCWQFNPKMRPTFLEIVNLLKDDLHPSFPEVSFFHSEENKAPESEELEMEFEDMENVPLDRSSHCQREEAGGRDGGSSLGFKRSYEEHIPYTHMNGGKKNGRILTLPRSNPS
Sequence of Calcium/calmodulin-dependent protein kinase type II subunit beta (Homo sapiens) (Q13554 whole entry): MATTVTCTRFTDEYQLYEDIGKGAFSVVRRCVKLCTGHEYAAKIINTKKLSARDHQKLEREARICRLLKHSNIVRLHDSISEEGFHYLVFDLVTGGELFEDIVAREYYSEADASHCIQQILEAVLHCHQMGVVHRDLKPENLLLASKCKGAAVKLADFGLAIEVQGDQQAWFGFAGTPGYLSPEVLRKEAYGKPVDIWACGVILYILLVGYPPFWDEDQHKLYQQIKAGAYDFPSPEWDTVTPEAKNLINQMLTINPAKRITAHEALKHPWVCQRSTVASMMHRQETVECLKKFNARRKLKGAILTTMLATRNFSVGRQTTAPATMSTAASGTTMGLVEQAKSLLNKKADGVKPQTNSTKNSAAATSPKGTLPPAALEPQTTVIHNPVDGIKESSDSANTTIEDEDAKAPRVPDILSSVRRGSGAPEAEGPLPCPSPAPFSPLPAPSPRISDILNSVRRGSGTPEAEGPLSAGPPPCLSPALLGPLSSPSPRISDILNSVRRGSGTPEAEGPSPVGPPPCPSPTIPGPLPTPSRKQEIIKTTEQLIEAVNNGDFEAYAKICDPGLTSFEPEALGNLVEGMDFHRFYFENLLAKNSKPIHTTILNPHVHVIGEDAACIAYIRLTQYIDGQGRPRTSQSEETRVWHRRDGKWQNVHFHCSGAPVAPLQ
Sequence of Testis-specific serine/threonine-protein kinase 2 (Homo sapiens) (Q96PF2 whole entry): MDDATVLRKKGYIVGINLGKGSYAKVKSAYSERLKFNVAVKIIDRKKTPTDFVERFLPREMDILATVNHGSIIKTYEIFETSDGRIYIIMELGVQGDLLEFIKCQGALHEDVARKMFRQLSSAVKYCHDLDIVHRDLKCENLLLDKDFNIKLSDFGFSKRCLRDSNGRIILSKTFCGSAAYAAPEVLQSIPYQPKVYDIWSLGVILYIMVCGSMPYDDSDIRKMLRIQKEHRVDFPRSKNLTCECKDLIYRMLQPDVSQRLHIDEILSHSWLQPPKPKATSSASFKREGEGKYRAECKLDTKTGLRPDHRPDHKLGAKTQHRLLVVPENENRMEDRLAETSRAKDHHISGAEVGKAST
Sequence of Tyrosine-protein kinase Tec (Homo sapiens) (P42680 whole entry): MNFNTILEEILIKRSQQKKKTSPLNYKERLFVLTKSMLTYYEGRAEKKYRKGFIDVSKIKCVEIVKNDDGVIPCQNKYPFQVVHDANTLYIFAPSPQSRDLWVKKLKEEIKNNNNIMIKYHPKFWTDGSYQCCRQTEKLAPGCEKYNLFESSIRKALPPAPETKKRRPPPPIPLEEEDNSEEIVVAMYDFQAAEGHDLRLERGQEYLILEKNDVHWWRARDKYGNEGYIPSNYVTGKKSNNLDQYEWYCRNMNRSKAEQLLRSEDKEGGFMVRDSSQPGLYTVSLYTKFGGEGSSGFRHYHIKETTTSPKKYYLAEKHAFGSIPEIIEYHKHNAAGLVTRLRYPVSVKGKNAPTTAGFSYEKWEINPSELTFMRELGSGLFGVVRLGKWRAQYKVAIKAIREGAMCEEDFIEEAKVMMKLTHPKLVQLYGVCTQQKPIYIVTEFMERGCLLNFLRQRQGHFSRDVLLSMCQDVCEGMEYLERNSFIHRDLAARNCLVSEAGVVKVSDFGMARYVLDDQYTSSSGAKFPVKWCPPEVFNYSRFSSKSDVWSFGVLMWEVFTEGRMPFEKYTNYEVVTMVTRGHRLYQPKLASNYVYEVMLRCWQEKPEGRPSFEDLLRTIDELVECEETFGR
Sequence of Serine/threonine-protein kinase Sgk2 (Homo sapiens) (Q9HBY8 whole entry): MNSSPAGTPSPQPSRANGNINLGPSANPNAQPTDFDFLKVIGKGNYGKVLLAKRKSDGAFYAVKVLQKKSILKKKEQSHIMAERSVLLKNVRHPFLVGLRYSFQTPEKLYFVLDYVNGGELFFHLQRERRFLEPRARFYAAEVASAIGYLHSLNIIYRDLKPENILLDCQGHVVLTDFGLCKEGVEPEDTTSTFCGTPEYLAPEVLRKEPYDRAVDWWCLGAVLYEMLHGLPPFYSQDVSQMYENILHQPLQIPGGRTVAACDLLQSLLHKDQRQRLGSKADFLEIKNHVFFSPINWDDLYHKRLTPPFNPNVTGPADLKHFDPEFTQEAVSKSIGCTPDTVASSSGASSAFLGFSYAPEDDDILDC

inhibition [1]: < 60% | Activity [2]: 97.5% | Activity [3]: 108% | Activity [4]: 102% | Activity [5]: 107% | Activity [6]: 98.5% | Activity [7]: 104% | Activity [8]: 96% | Activity [10]: 100% | Activity [11]: 93% | Activity [12]: 120% | Activity [13]: 102% | Activity [14]: 118% | Activity [15]: 102% | Activity [16]: 103% | Activity [17]: 90% | Activity [18]: 102% | Activity [19]: 127% | Activity [20]: 106% | Activity [21]: 83.5% | Activity [22]: 90.5% | Activity [23]: 99.5% | Activity [24]: 98.5% | Activity [25]: 121% | Activity [26]: 87% | Activity [27]: 109% | Activity [28]: 119% | Activity [29]: 96% | Activity [30]: 91.5% | Activity [31]: 106% | Activity [32]: 104% | Activity [33]: 99.5% | Activity [34]: 106% | Activity [35]: 110% | Activity [36]: 99% | Activity [37]: 104% | Activity [38]: 97%
SMILES: CCCS(=O)(=O)Nc1cccc(Nc2ccc3ncn(C)c(=O)c3c2)c1C#N
Activity [9]: 108%
